Assays:
Gal4-RORγ-LBD = target: T1, Gal4-RORγ-LBD (Homo sapiens, UniProt P51449); assay: Gal4-RORγ Luciferase Reporter Assay in HEK-293T Cells; type: cell-based
T1 construct: expressed in transfected cells
T1 sequence (P51449 269-508 limits assumed): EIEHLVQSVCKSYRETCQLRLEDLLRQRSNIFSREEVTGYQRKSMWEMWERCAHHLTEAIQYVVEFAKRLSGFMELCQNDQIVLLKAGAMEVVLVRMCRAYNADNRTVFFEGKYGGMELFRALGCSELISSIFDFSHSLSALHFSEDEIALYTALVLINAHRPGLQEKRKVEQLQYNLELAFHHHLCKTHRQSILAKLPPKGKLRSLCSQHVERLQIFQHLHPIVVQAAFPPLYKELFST
Protocol: In the following protocol, HEK-293 cells were transfected with a construct comprising the Gal4 DNA binding domain fused to the ligand binding domain of RORγ (Gal4-RORγ-LBD) in a pcDNA3.1neo plasmid, and also with a reporter construct comprising pGL4.31 Gal4-luciferase (Promega). Control cells were prepared similarly using empty pcDNA3.1neo and pGL4.31 vectors.
Trans-IT reagent (Mirus, 60 μL) at room temperature was added drop wise to OptiMEM (Invitrogen, 1.5 ml). This reagent mixture was mixed by inversion then incubated for 5 to 30 minutes at room temperature. It then was added to a solution of both expression vectors (5 μg each), mixed, and incubated at room temperature for about 20 minutes. HEK-293 cells were harvested from incubation flasks by removing the media, treating with TrypLE Express (Invitrogen), and incubating until the cells detached from the bottom of the flask (approximately 2-5 minutes). […]
The cells were harvested as described above, counted, and centrifuged to obtain the desired number of cells, then re-suspended in complete growth media at 0.75×10^6 cells/mL. […] The luciferase intensity was read on an Envision plate reader (Perkin Elmer). […] The Max Response is the upper plateau in the signal as determined by line-fit using a 4-parameter logistic model in PRISM (GraphPad).

RORγ-LBD = target: T2, RORγ-LBD (Homo sapiens, UniProt P51449); assay: RORγ-Ligand Binding Domain (LBD) TR-FRET Assay; type: biochemical
T2 construct: HIS-tagged RORγ-LBD protein was expressed in SF9 cells using a baculovirus expression system; made in house; host or cells: SF9 insect cells, baculovirus; lysate used
T2 sequence (P51449 269-508 limits assumed): T1 sequence (P51449 269-508 limits assumed)
Protocol: HIS-tagged RORγ-LBD protein was expressed in SF9 cells using a baculovirus expression system. The lysate was diluted in assay buffer (50 mM Tris pH 7.0, 50 mM KCl, 1 mM EDTA, 0.1 mM DTT, 0.01% BSA) to obtain RORγ-LBD final concentration of ˜3 nM in a 384-well assay plate (need to titrate for each batch of protein).
A stock of biotinylated-LXXLL peptide from coactivator SRC1 (Biotin-[…]) was prepared in assay buffer and added to each well (200 nM final concentration). […] RORγ antagonist ursolic acid was also included at a final concentration of 2 μM. Compounds were diluted in DMSO and further diluted in assay buffer with a final DMSO concentration at 1%.

EG7 tumors = assay: Adoptive transfer of Tc17 cells treated ex vivo with RORγ agonist to mice bearing EG7 tumors; type: in vivo; conditions: Tc17 cells exposed ex vivo to compound at 10 μM; FIG. 1 Part A
Protocol: EG7 cells (EL4 cells with OVA expression) were grown in RPMI 1640 medium (Invitrogen)/10% heat-inactivated FBS (Hyclone), penicillin-streptomycin, and 50 mM β-mercaptoethanol (Invitrogen); harvested; washed with phosphate-buffered saline (PBS); and then implanted at 1×10^6 cells/mouse in PBS into the flank of mice subcutaneously. Implanted tumor cells grow into visible tumor in about one week. Mice are provided food and water ab libitum throughout the duration of the experiment.
Three to five days after tumor cell transplantation, Tc17 differentiation culture is set up. […]
When a tumor becomes visible, tumor volume is assessed by caliper measurement of the length and width and tumor volume is calculated (0.5×(length×(width)^2). When the tumor becomes visible in most mice (typically 7-10 days after implantation), mice are randomized by tumor volume (tumor volume is <500 mm^3) and divided into three groups. Differentiated Tc17 cells (with or without RORγ agonist) are counted, washed with phosphate buffered saline (PBS), and then the cells are injected into tumor-bearing mice at 5×10^6 cells/mouse intraperitoneally or intravenously using a PBS carrier to deliver the cells. […]
After T cell transfer, tumor volume was assessed every 2 to 3 days. In studies where survival is assessed, mice that are alive and have tumor volume smaller than 3000 mm^3 are considered survivors.

In the case of C[C@H]1CN(S(=O)(=O)c2cccc(C(F)(F)F)c2)c2cc(COc3c(F)cccc3Cl)ccc2O1 [Compound 1], the EC50 (Gal4-RORγ-LBD; HEK-293 cells, 2 μM ursolic acid) is reported as 500 to 5000 nM, the “Gal4-RORγ Assay Average Max Response” value (Gal4-RORγ-LBD; upper plateau, luciferase signal in absence of ursolic acid or test compound defined at 100) is reported as “** (a value in the range of greater than 90 to 150)” and the EC50 (RORγ-LBD; in presence of 2 μM RORγ antagonist ursolic acid) is reported as under 500 nM. For the same compound, the “TR-FRET Assay Average Max Response” value (RORγ-LBD; upper plateau, signal in absence of ursolic acid or test compound set as 100) was “**** (a value greater than 200)” and the “change in tumor volume over time, p vs. DMSO treated Tc17 cells” value (EG7 tumors) was under 0.004.

Source: patent publication US10532088B2, “Adoptive cellular therapy using an agonist of retinoic acid receptor-related orphan receptor gamma and related therapeutic methods” (Lycera Corporation, priority 2014, dated 2020)
